Data as given in the supplement of paper PMC8149375.

Key:
Conditions in all cases: treatment: drug alone; 5 days
ACHN [1] = test: minimum viability across doses, drug alone, relative to DMSO (fraction); higher = less growth inhibition
Description: (§1)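 Primary HTS: 8 RCC cell lines treated with 8 doses (up to 10 uM) of each library drug alone for 5 days; viability read by CellTiter-Glo and normalised to DMSO. GI50 was fitted with XLfit (4-parameter), AUC is the area under the dose-response curve, and minimum viability is the lowest fraction of DMSO viability across doses.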

TK-10 [2] = test: as above
Description: as §1

UO-31 [3] = test: as above
Description: as §1

A498 [4] = test: as above
Description: as §1

786-O [5] = test: as above
Description: as §1

CAKI-1 [6] = test: as above
Description: as §1

SN12C [7] = test: as above
Description: as §1

769-P [8] = test: as above
Description: as §1

ACHN [9] = test: GI50, drug alone; higher = less potent
Description: as §1

TK-10 [10] = test: GI50, drug alone; higher = less potent
Description: as §1

UO-31 [11] = test: GI50, drug alone; higher = less potent
Description: as §1

A498 [12] = test: GI50, drug alone; higher = less potent
Description: as §1

786-O [13] = test: GI50, drug alone; higher = less potent
Description: as §1

CAKI-1 [14] = test: GI50, drug alone; higher = less potent
Description: as §1

SN12C [15] = test: GI50, drug alone; higher = less potent
Description: as §1

769-P [16] = test: GI50, drug alone; higher = less potent
Description: as §1

ACHN [17] = test: AUC of dose-response viability curve, drug alone (arbitrary (AUC of normalised viability)); higher = less growth inhibition
Description: as §1

TK-10 [18] = test: as above
Description: as §1

UO-31 [19] = test: as above
Description: as §1

A498 [20] = test: as above
Description: as §1

786-O [21] = test: as above
Description: as §1

CAKI-1 [22] = test: as above
Description: as §1

SN12C [23] = test: as above
Description: as §1

769-P [24] = test: as above
Description: as §1

SMILES | GI50, drug alone (ACHN [9]) | GI50, drug alone (786-O [13]) | minimum viability across doses (ACHN [1]) | minimum viability across doses (TK-10 [2]) | minimum viability across doses (UO-31 [3]) | minimum viability across doses (A498 [4]) | minimum viability across doses (786-O [5]) | minimum viability across doses (CAKI-1 [6]) | minimum viability across doses (SN12C [7]) | minimum viability across doses (769-P [8]) | GI50, drug alone (TK-10 [10]) | GI50, drug alone (UO-31 [11]) | GI50, drug alone (A498 [12]) | GI50, drug alone (CAKI-1 [14]) | GI50, drug alone (SN12C [15]) | GI50, drug alone (769-P [16]) | AUC of dose-response viability curve (ACHN [17]) | AUC of dose-response viability curve (TK-10 [18]) | AUC of dose-response viability curve (UO-31 [19]) | AUC of dose-response viability curve (A498 [20]) | AUC of dose-response viability curve (786-O [21]) | AUC of dose-response viability curve (CAKI-1 [22]) | AUC of dose-response viability curve (SN12C [23]) | AUC of dose-response viability curve (769-P [24])
FC(F)(F)c1ccc(/C=C/c2nc(COc3ccc(CCCCn4ccnn4)cc3)co2)cc1 [Mubritinib (TAK 165)] | 116 nM | 32.9 nM | 0.125 | 0.21 | 0.033 | 0.151 | 0.0382 | 0.765 | 0.0401 | 0.586 | 147 nM | 58 nM | 154 nM | > 10000 nM | 42.9 nM | > 10000 nM | 1.78 | 1.78 | 1.39 | 2.12 | 1.04 | 2.96 | 1.14 | 2.86
Nc1ncnc2c1c(-c1cccc(OCc3ccccc3)c1)cn2[C@H]1C[C@H](CN2CCCC2)C1 [NVP-ADW742] | 3350 nM | 5940 nM | 0.275 | 0.329 | 0.0137 | 0.377 | 0.19 | 0.362 | 0.612 | 0.478 | 5260 nM | 8260 nM | 9560 nM | 6480 nM | > 10000 nM | > 10000 nM | 2.38 | 2.63 | 3.24 | 3.59 | 2.71 | 3.01 | 3.2 | 3.14
COc1ccc(-c2ccc3ncc4c(c3c2)n(-c2ccc(N3CCNCC3)c(C(F)(F)F)c2)c(=O)n4C)cn1.O=C(O)/C=C\C(=O)O [NVP-BGT226] | 14.9 nM | 12.9 nM | 0.00135 | 0.00394 | 0.00819 | 0.0133 | 0.00447 | 0.00344 | 0.00358 | 0.00969 | 20.2 nM | 11.3 nM | 29.1 nM | 27.2 nM | 15.8 nM | 36.2 nM | 0.785 | 0.903 | 0.578 | 1.21 | 0.728 | 1.03 | 0.857 | 1.22
Cc1ccc(C(=O)Nc2cccc(C(F)(F)F)c2)cc1Nc1nc(-c2cccnc2)nc2c1cnn2C [NVP-BHG712] | 1900 nM | 809 nM | 0.109 | 0.0678 | 0.00612 | 0.023 | 0.00203 | 0.0328 | 0.0886 | 0.06 | 1340 nM | 8280 nM | 8450 nM | 2450 nM | 4560 nM | 3810 nM | 2.89 | 2.45 | 5.14 | 3.97 | 2.18 | 3.03 | 3.15 | 3.13

Continued, in another order:

GI50, drug alone (ACHN [9]) | GI50, drug alone (786-O [13]) | SMILES | minimum viability across doses (ACHN [1]) | minimum viability across doses (TK-10 [2]) | minimum viability across doses (UO-31 [3]) | minimum viability across doses (A498 [4]) | minimum viability across doses (786-O [5]) | minimum viability across doses (CAKI-1 [6]) | minimum viability across doses (SN12C [7]) | minimum viability across doses (769-P [8]) | GI50, drug alone (TK-10 [10]) | GI50, drug alone (UO-31 [11]) | GI50, drug alone (A498 [12]) | GI50, drug alone (CAKI-1 [14]) | GI50, drug alone (SN12C [15]) | GI50, drug alone (769-P [16]) | AUC of dose-response viability curve (ACHN [17]) | AUC of dose-response viability curve (TK-10 [18]) | AUC of dose-response viability curve (UO-31 [19]) | AUC of dose-response viability curve (A498 [20]) | AUC of dose-response viability curve (786-O [21]) | AUC of dose-response viability curve (CAKI-1 [22]) | AUC of dose-response viability curve (SN12C [23]) | AUC of dose-response viability curve (769-P [24])
1600 nM | 3950 nM | Cl.Cl.Fc1cc(-c2cccc3ncc(-c4cnn(C5CCNCC5)c4)nc23)cc(F)c1CN1CCOCC1 [NVP-BSK805] | 0.0296 | 0.212 | 0.00823 | 0.0305 | 0.00287 | 0.0193 | 0.331 | 0.0465 | 3400 nM | 8510 nM | 7770 nM | 2390 nM | 7390 nM | 5730 nM | 2.62 | 2.63 | 4.15 | 3.8 | 2.23 | 2.74 | 2.87 | 3.09
1320 nM | 589 nM | Cn1cc(-c2ccc3ncc(Cc4ccc5ncccc5c4)n3n2)cn1 [NVP-BVU972] | 0.0166 | 0.12 | 0.018 | 0.0174 | 0.00923 | 0.0623 | 0.0229 | 0.0466 | 1300 nM | 1400 nM | 2530 nM | 1170 nM | 1400 nM | > 10000 nM | 2.78 | 2.58 | 4.11 | 3.94 | 2.24 | 2.77 | 2.75 | 3.07
962 nM | 52.8 nM | CNC(=O)c1ccccc1Nc1nc(Nc2ccc(N3CCOCC3)cc2OC)ncc1Cl [NVP-TAE226] | 0.102 | 0.102 | 0.398 | 0.703 | 0.00915 | 0.0558 | 0.295 | 0.29 | 551 nM | 8150 nM | > 10000 nM | 1360 nM | 5140 nM | 2760 nM | 2.43 | 2.12 | 3.21 | 4.76 | 1.15 | 2.64 | 2.95 | 2.93
> 10000 nM | 28.3 nM | CN1C(=O)C(Cc2c[nH]c3ccccc23)NC1=S (stereo unspecified) [Necrostatin-1] | 0.79 | 0.729 | 1.01 | 0.888 | 0.334 | 0.916 | 0.868 | 0.968 | > 10000 nM | > 10000 nM | > 10000 nM | > 10000 nM | > 10000 nM | > 10000 nM | 2.99 | 2.91 | 4.83 | 4.28 | 2.03 | 3.5 | 3.29 | 3.6
77.1 nM | 756 nM | CCOc1cc2ncc(C#N)c(Nc3ccc(OCc4ccccn4)c(Cl)c3)c2cc1NC(=O)/C=C/CN(C)C [Neratinib (HKI-272)] | 0.117 | 0.251 | 0.697 | 0.894 | 0.345 | 0.161 | 0.315 | 0.0782 | 161 nM | > 10000 nM | > 10000 nM | 407 nM | 1350 nM | 1140 nM | 1.48 | 1.77 | 4.06 | 3.99 | 2.38 | 2.11 | 2.44 | 2.43
